Laboratory results taken from patent US20030232851A1, “Viral treatment” (The Procter & Gamble Company, priority 1999, published 2003).
Values after ≈ are worked out from the molar mass of the structure shown. Values joined by “and” are separate entries in the source; they are usually repeats but may differ in a detail not shown here. Equal values may be shown once.

Key:
[1] = system: Cryptococcus neoformans; test: Anti-fungal activity (NCCLS M-27A based), Cryptococcus neoformans; type: cell-based
Description: (§1) It was active against cryptococcus neoformans and curvularai lunata. The cidal activity for the C. neoformans is high enough that it is clear […] against this yeast. This test was conducted using a method based upon NCCLS reference method M-27A published in 1997. Solvent, medium and growth controls were set-up with the tests. Once these were read to validate the test performance, the QC fungi were read to insure they had expected results. These steps validated the test system. DMSO was used as a drug-chemical solvent. […] The 90% cut-off is necessary for azoles, which are static and not cidal. The FMC or cidal level was determined by sub-culturing a sample from each tube showing no growth.

[2] = system: Curvularia lunata; test: Anti-fungal activity (NCCLS M-27A based), Curvularia lunata; type: cell-based; settings: growth inhibited or reduced at least 90%
Description: as §1

[3] = system: TPA-induced BCBL-1 cells; test: Kaposi's Sarcoma test: toxicity values; type: cell-based; design: Toxicity Values, samples 1-3 / Toxicity Values, average: scale not given here
Description: (§2) The DNA copy number and the toxicity value were measured and compared with Cidofovir.

[4] = system: HHV8 cell line, TPA-induced BCBL-1 cells; test: Kaposi's Sarcoma (HHV8) in vitro test, DNA copy number; type: cell-based
Description: as §2

[5] = target: T1, HIV-1 protease (Human immunodeficiency virus type 1 group M subtype B, UniProt P04585); test: Protease inhibition assay (fluorometric); type: biochemical; settings: for Protease Inhibition, sample reading: sample 1, sample 2, hydrochloride salt
T1 construct: precludes use of the fluorometric HIV-1 protease assay; purchased Bachem
Description: Protease inhibition is evaluated using a fluorometric method. Enzyme (Bachem) is diluted to 116 μgm/ml in 50 mM NaOAC, 5 mM DTT, 2 mM EDTA, 10% glycerol (pH 5.0) and stored as 10 μl samples at −20° C., HIV protease substrates I (Molecular Probes) is diluted to a working concentration of 0.32 nmoles/μl. Enzyme (20 μl) and drug (20 μl) are added to each well of a microtiter plate as appropriate. Positive and negative controls are evaluated in parallel. Fluorescence is quantitated on Labsystems Fluroskan II using 355 nm/460 nm at 37° C. at time zero and at 30 minute intervals for 2 hours. In instances where autofluorescence precludes use of the fluorometric HIV-1 protease assay or confirmation of a result is required, an HPLC based protease assay can be employed.

[6] = target: HIV-1 integrase (Human immunodeficiency virus type 1 group M subtype B, UniProt P04585); test: HIV-1 integrase inhibition assay; type: biochemical; design: HIV-1 Integrase Inhibition, sample reading / HIV-1 Integrase Inhibition, mean: unit not given here; settings: for HIV-1 Integrase Inhibition, sample reading: sample 1, sample 2, hydrochloride salt
Source text: A biochemical integrase assay described by Craigie et at (HIV, vol. 2: A practical Approach) Biochemistry, Molecular Biology and Drug Discovery, Ed. J. Kam 1995) to screen agents for their ability to inhibit HIV-1 integrase. In this system, a kinased oligonucleotide serves as the target of 3′ processing and the subsequent strand transfer reaction. The 3′ processing reaction involves the removal of 2 nucleotides from the 3′ ends of the substrate and this is followed by the strand transfer reaction in which the 3′ ends are joined to the exposed 5′ ends. The 20 μl reaction mixture contains 25 mM MOPS (pH 7.2), […] BSA, 10 mM β-mercaptoethanol, 10% glycerol, 7.5 mM MnCl2, 25 nM (7 ng) substrate (Oligo's Etc., Wilsonville, Oreg.) and 200 nM (128 ng) integrase (NIAID AIDS Research and Reference Reagent Program, Bethesda, Md.). The reaction proceeds at 37° C. for 1-2 hours and is terminated by the addition of 20 μl of sequencing stop solution (JSB Amersham, Arlington Heights, Ill.). The reaction products are visualized by autoradiography following electrophoresis in 15% polyacrylamide 6M Urea gel. The substrate migrates as a 30 mer, the product of 3′ processing migrates as an N-2 band and the strand transfer products migrate more slowly at various sizes larger than the substrate.

## CCC(C)n1ncn(-c2ccc(N3CCN(c4ccc(OCC5COC(Cn6cncn6)(c6ccc(Cl)cc6Cl)O5)cc4)CC3)cc2)c1=O (stereo not shown) [Itra, Itraconazole]
[1]; Cryptococcus neoformans, cidal level
  MFC: > 32 µg/mL
[1]; Cryptococcus neoformans, growth inhibited or reduced at least 90%
  MIC: 0.03 µg/mL (≈ 0.0425 µM)
[2]; Curvularia lunata
  MIC: 0.03 µg/mL (≈ 0.0425 µM)

## Nc1ccn(C[C@@H](CO)OCP(=O)(O)O)c(=O)n1 [Cidofovir, reference compound]
[3]; 0.08 μM
  Toxicity Values, % cell control: 83.9%
  Toxicity Values, average: 0.814
  Toxicity Values, samples 1-3: 0.864 and 0.797 and 0.780
[3]; 0.25 μM
  Toxicity Values, % cell control: 90.1%
  Toxicity Values, average: 0.874
  Toxicity Values, samples 1-3: 0.867 and 0.819 and 0.934
[3]; 0.8 μM
  Toxicity Values, % cell control: 82.8%
  Toxicity Values, average: 0.803
  Toxicity Values, samples 1-3: 0.824 and 0.770 and 0.814
[3]; 2.5 μM
  Toxicity Values, % cell control: 75.0%
  Toxicity Values, average: 0.728
  Toxicity Values, samples 1-3: 0.794 and 0.684 and 0.704
[3]; 8 μM
  Toxicity Values, % cell control: 69.3%
  Toxicity Values, average: 0.672
  Toxicity Values, samples 1-3: 0.639 and 0.700 and 0.677
[3]; 25 μM
  Toxicity Values, % cell control: 4403%
  Toxicity Values, average: 0.430
  Toxicity Values, samples 1-3: 0.443 and 0.398 and 0.447
[4]; 0.08 μM
  DNA Copy Number, % virus control: 95.3%
  DNA Copy Number, average: 8478.0 per 3 μl
  DNA Copy Number, samples 1-3: 8485.1 per 3 μl and 7948.1 per 3 μl and 9000.8 per 3 μl
[4]; 0.25 μM
  DNA Copy Number, % virus control: 75.0%
  DNA Copy Number, average: 6666.9 per 3 μl
  DNA Copy Number, samples 1-3: 6668.9 per 3 μl and 6336.3 per 3 μl and 6995.5 per 3 μl
[4]; 0.8 μM
  DNA Copy Number, % virus control: 57.5%
  DNA Copy Number, average: 5108.6 per 3 μl
[4]; 2.5 μM
  DNA Copy Number, % virus control: 14.3%
  DNA Copy Number, average: 1276.9 per 3 μl
  DNA Copy Number, samples 1-3: 1329.8 per 3 μl and 1198.3 per 3 μl and 1275.7 per 3 μl
[4]; 8 μM
  DNA Copy Number, % virus control: 0.0%
  DNA Copy Number, average: 3.0 per 3 μl
[4]; 25 μM
  DNA Copy Number, % virus control: 0.0%
  DNA Copy Number, average: 0.0 per 3 μl
  DNA Copy Number, samples 1-3: 0 per 3 μl and 0.0 per 3 μl
[4]; Human gammaherpesvirus 8, BCBL1
  IC50: 1100 nM

## Cl.c1csc(-c2nc3ncccc3[nH]2)c1 [2-(2-thienyl)-imidazolo [4,5-b]pyridine hydrochloride salt]
[5]; 1 nM
  Protease Inhibition, mean: 26.3
  Protease Inhibition, sample reading: 29.9 and 22.6
[5]; 10 nM
  Protease Inhibition, mean: 35.0
  Protease Inhibition, sample reading: 36.0 and 34.1
[5]; 100 nM
  Protease Inhibition, mean: 84.8
  Protease Inhibition, sample reading: 85.4 and 84.2
[5]; 1000 nM
  Protease Inhibition, mean: 247.3
  Protease Inhibition, sample reading: 245.7 and 248.8
[6]
  EC50: > 421000 nM
[6]; 0.1 μg/ml
  HIV-1 Integrase Inhibition, mean: 9144
  HIV-1 Integrase Inhibition, sample reading: 9338.5 and 8948.8
[6]; 1 μg/ml
  HIV-1 Integrase Inhibition, mean: 12194
  HIV-1 Integrase Inhibition, sample reading: 11838.2 and 12550.7
[6]; 10 μg/ml
  HIV-1 Integrase Inhibition, mean: 12299
  HIV-1 Integrase Inhibition, sample reading: 10848.3 and 13750.3
[6]; 100 μg/ml
  HIV-1 Integrase Inhibition, mean: 10570
  HIV-1 Integrase Inhibition, sample reading: 10212.5 and 10928.4

## C[C@@H]1[C@H](O)[C@@H](C)/C=C/C=C/C=C/C=C/C=C/C=C/C=C/[C@H](O[C@@H]2O[C@H](C)[C@@H](O)[C@H](N)[C@@H]2O)C[C@@H]2O[C@](O)(C[C@@H](O)C[C@@H](O)[C@H](O)CC[C@@H](O)C[C@@H](O)CC(=O)O[C@H]1C)C[C@H](O)[C@H]2C(=O)O [AmB, amphotericin B]
[1]; cidal level
  MFC data: 1 µg/mL (≈ 1.08 µM)
[1]; growth inhibited or reduced at least 90%
  MIC data: 0.25 µg/mL (≈ 0.271 µM)
[2]
  MIC data: 0.03 µg/mL (≈ 0.0325 µM)
